Read-outs that look alike come from different tables or passages of the source.
What was measured:
[1] = target: T1, IκBα ubiquitinating enzyme (SCF complex: ROC1, Cullin1, Skp1, His-TrCP1; with E1, UbcH5b) (Homo sapiens, UniProt P62877+P63208+Q13616+Q9Y297); experiment: Measurement of ubiquitinating enzyme activity (IκBα ubiquitination, time-resolved fluorescence with Eu(K)-labeled ubiquitin and XL665-labeled anti-GST antibody); type: biochemical
T1 construct: His (polyhistidine); made in house; host or cells: insect cells (baculovirus) for the SCF complex and His-E1; E. coli for His-UBCH5b
Summary of the method: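 Human SCF complex with E1 and UbcH5b ubiquitinated GST-IκBα pre-phosphorylated by IKKβ (2 mM ATP, pH 7.4, 1 h, RT), with Eu(K)-ubiquitin, 30 min RT. Stopped with EDTA, XL665 anti-GST added for 2 h; 665/620 nm TR-FRET ratio. % inhibition versus no-compound control and no-SCF blank gave IC50.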

[2] = test system: ICAM-1 expression in HT-29 cells; experiment: Measurement of ICAM-1 expressing activity (TNFα-induced ICAM-1 expression, cell ELISA); type: cell-based; conditions: Homo sapiens, Table 6, cell activity inhibition test by method (3), read-out: EVALUATION (IC50 class, inhibition of cell activity)
Summary of the method: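 HT-29 cells pretreated with compound (0.5% DMSO final) for 30 min at 37°C, then stimulated with 30 ng/mL human TNFα for 4 h. Surface ICAM-1 measured by cell ELISA on methanol-fixed cells: anti-ICAM-1 plus POD secondary, TMBZ substrate, absorbance at 450 nm.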

[3] = enzyme activity inhibition test, method (1), Table 5, read-out: EVALUATION

T1 sequence (Q9Y297 whole entry): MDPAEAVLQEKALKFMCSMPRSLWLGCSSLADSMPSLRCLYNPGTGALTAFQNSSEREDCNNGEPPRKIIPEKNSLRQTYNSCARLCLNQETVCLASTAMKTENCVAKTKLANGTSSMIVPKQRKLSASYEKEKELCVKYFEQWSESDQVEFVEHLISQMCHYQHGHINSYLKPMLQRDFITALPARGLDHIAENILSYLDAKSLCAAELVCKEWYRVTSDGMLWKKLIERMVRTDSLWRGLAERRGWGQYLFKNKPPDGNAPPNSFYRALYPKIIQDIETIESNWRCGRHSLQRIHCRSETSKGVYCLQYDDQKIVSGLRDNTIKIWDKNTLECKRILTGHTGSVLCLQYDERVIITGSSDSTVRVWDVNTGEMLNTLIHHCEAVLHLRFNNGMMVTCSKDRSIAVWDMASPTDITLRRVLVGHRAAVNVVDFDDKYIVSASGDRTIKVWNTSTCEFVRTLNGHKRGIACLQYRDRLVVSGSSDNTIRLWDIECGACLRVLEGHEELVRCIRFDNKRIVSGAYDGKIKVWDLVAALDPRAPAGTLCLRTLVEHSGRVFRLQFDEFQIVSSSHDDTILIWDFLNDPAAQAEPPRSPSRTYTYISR
T1 sequence (Q13616 whole entry): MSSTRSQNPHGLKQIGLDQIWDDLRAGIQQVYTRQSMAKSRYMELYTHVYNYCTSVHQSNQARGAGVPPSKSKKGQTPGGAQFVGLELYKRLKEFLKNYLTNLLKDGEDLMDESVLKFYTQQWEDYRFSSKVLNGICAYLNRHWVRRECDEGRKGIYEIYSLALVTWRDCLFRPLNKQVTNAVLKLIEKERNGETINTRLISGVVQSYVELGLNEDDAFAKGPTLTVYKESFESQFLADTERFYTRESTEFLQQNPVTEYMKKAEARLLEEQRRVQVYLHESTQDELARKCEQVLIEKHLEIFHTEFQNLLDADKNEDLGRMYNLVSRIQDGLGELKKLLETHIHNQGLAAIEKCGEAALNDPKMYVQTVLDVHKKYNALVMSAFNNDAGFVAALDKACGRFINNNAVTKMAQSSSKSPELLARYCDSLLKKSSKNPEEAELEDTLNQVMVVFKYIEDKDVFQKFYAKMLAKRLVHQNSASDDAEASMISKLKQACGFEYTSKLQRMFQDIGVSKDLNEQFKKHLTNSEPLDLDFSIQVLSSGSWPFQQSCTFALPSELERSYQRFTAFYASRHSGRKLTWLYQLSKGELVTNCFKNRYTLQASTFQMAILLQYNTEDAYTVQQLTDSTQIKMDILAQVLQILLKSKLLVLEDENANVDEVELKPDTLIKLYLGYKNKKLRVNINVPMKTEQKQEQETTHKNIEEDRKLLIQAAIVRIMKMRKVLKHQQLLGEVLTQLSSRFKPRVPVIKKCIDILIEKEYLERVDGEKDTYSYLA
T1 sequence (P63208 whole entry): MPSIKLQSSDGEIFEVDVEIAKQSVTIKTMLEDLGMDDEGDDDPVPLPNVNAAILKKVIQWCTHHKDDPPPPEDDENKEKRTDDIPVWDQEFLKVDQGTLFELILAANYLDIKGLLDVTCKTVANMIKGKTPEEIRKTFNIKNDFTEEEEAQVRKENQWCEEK
T1 sequence (P62877 whole entry): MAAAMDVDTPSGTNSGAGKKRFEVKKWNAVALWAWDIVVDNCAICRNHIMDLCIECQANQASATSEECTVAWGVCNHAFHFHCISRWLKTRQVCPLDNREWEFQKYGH

IC50 [1, 3] | IC50 [2] | SMILES | IC50 [1]
< 10 µM | < 40 µM | CC1=NN(c2ccc(C(=O)O)cc2)C(=O)/C1=C\c1ccc(N2CCCCC2)cc1 [Compound 350] | 
10 to 20 µM | < 40 µM | CC1=NN(c2ccccc2)C(=O)/C1=C\c1ccc(N2CCNCC2)cc1 [Compound 200] | 
10 to 20 µM | 10 to 20 µM | CC1=NN(c2ccc(S(N)(=O)=O)cc2)C(=O)/C1=C\c1ccc2ccccc2c1 [Compound 116] | 
10 to 20 µM | < 40 µM | COc1cc(/C=C2\C(=O)N(c3cccc(C(=O)O)c3)N=C2C)ccc1OCC1CCCCC1 [Compound 407] | 
< 10 µM | < 40 µM | CCCCC1=NN(c2ccc(C(=O)O)cc2)C(=O)/C1=C\c1ccc(N2CCN(c3ccccc3)CC2)cc1 [Compound 434] | 
10 to 20 µM | < 40 µM | CC1=NN(c2cccc(C(=O)O)c2)C(=O)/C1=C\c1ccc(N2CCN(C(=O)OC(C)(C)C)CC2)cc1 [Compound 437] | 
< 10 µM | < 10 µM | COCC1=NN(c2ccc(C(=O)O)cc2)C(=O)/C1=C\c1ccc(-n2cncn2)cc1 [Compound 243] | 
< 10 µM | 10 to 20 µM | CC1=NN(c2cccc(C(=O)N3CCCC3CO)c2)C(=O)/C1=C\c1ccc2[nH]ccc2c1 (stereo not drawn) [Compound 372] | 
< 10 µM | 10 to 20 µM | CC1=NN(c2ccc(C(=O)N3CCC(O)C3)cc2)C(=O)/C1=C\c1ccc2c(c1)OCCO2 (stereo not drawn) [Compound 413] | 
< 10 µM | 10 to 20 µM | Cn1cc(-c2ccc(/C=C3\C(=O)N(c4cccc(C(=O)O)c4)N=C3c3ccoc3)o2)cn1 [Compound 491] | 
10 to 20 µM | 10 to 20 µM | CC1=NN(c2ccc(S(N)(=O)=O)cc2)C(=O)/C1=C\c1ccc(F)cc1 [Compound 118] | 
< 10 µM | 10 to 20 µM | CC1=NN(c2ccc(S(N)(=O)=O)cc2)C(=O)/C1=C\c1ccc(C(C)(C)C)cc1 [Compound 115] | 
< 10 µM | 10 to 20 µM | COc1cc(/C=C2\C(=O)N(c3ccc(C(=O)O)cc3)N=C2C2CC2)ccc1OCc1ccccc1 [Compound 314] | 
< 10 µM | < 40 µM | CCCCC1=NN(c2cccc(C(=O)O)c2)C(=O)/C1=C\c1ccc2[nH]ccc2c1 [Compound 481] | 
< 10 µM | 10 to 20 µM | CC1=NN(c2ccc(C(=O)O)cc2)C(=O)/C1=C\c1ccc(-n2cncn2)cc1 [Compound 262] | 
< 10 µM | < 40 µM | CC1=NN(c2cccc(C(=O)N3CCC(O)CC3)c2)C(=O)/C1=C\c1ccc2[nH]ccc2c1 [Compound 373] | 

IC50 [1, 3] | IC50 [2] | SMILES | IC50 [1]
< 10 µM | < 40 µM | CC1=NN(c2cccc(C(=O)O)c2)C(=O)/C1=C\c1ccc(N2CCOCC2)cc1 [Compound 441] | 
10 to 20 µM | 10 to 20 µM | COc1cc(/C=C2\C(=O)N(c3ccc(C(=O)O)cc3)N=C2Cc2ccccc2)ccc1O [Compound 263] | 
10 to 20 µM | 10 to 20 µM | CC1=NN(c2cccc(C(=O)O)c2)C(=O)/C1=C\c1ccc(N2CCCC2)cc1 [Compound 472] | 
< 10 µM | 10 to 20 µM | O=C(O)c1ccc(N2N=C(C3CC3)/C(=C/c3ccc4ccccc4c3)C2=O)cc1 [Compound 313] | 
< 10 µM | 10 to 20 µM | COc1cc(/C=C2\C(=O)N(c3ccc(C(=O)O)cc3)N=C2C)ccc1OCC1CC1 [Compound 390] | 
10 to 20 µM | < 40 µM | O=C1/C(=C\c2ccc3ccccc3c2)C(C2CC2)=NN1c1ccccc1 [Compound 70] | 
< 10 µM | < 40 µM | CC1=NN(c2cccc(C(=O)O)c2)C(=O)/C1=C\c1ccc2c(ccn2Cc2ccccc2)c1 [Compound 494] | 
< 10 µM | < 40 µM | CCCCC1=NN(c2ccc(C(=O)O)cc2)C(=O)/C1=C\c1ccc(OCc2ccccc2)c(OC)c1 [Compound 296] | 
10 to 20 µM | < 10 µM | O=C(O)c1ccc(N2N=C(Cc3ccccc3)/C(=C/c3ccc4c(c3)OCCO4)C2=O)cc1 [Compound 272] | 
10 to 20 µM | < 10 µM | O=C(O)c1cccc(N2N=C(Cc3ccccc3)/C(=C/c3ccc(-c4ccccc4F)o3)C2=O)c1 [Compound 519] | 
10 to 20 µM | 10 to 20 µM | CCCCC1=NN(c2ccc(C(=O)O)cc2)C(=O)/C1=C\c1cccc2nccnc12 [Compound 297] | 
< 10 µM | < 40 µM | CC1=NN(c2cccc(C(=O)O)c2)C(=O)/C1=C\c1ccc2c(ccn2C(=O)C2CC2)c1 [Compound 530] | 
< 10 µM | < 40 µM | O=C(O)c1ccc(N2N=C(c3ccoc3)/C(=C/c3ccc4[nH]ccc4c3)C2=O)cc1 [Compound 477] | 
< 10 µM | < 40 µM | CC1=NN(c2ccc(C(=O)O)cc2)C(=O)/C1=C\c1ccc(OCC(=O)N2CCOCC2)cc1 [Compound 538] | 
< 10 µM | 10 to 20 µM | CC1=NN(c2cccc(C(=O)O)c2)C(=O)/C1=C\c1ccc([N+](=O)[O-])o1 [Compound 425] | 

More lines, now with the values behind:

SMILES | IC50 [1, 3] | IC50 [2] | IC50 [1]
COc1cc(/C=C2\C(=O)N(c3ccc(S(N)(=O)=O)cc3)N=C2C)ccc1OCC(=O)OC(C)(C)C [Compound 121] | 10 to 20 µM | 10 to 20 µM | 
O=C(O)c1ccc(N2N=C(C3CC3)/C(=C/c3ccc(CO)o3)C2=O)cc1 [Compound 316] | < 10 µM | < 10 µM | 
CC1=NN(c2ccc(S(N)(=O)=O)cc2)C(=O)C1=Cc1ccc(NC(=O)c2ccc(F)cc2)cc1 [Compound 226] |  | 10 to 20 µM | < 10 µM
CC1=NN(c2ccc(S(N)(=O)=O)cc2)C(=O)/C1=C\c1ccc(NC(=O)/C=C/c2ccccc2)cc1 [Compound 230] | < 10 µM | < 40 µM | 
O=C1/C(=C\c2ccc3ccccc3c2)C(c2ccoc2)=NN1c1ccccc1 [Compound 12] | < 10 µM | < 40 µM | 
COCCC1=NN(c2cccc(C(=O)O)c2)C(=O)/C1=C\c1ccc(-c2cnn(C)c2)o1 [Compound 505] | 10 to 20 µM | < 40 µM | 
O=C(O)c1ccc(N2N=C(C3CC3)/C(=C/c3ccc(N4CCCC4)cc3)C2=O)cc1 [Compound 317] | 10 to 20 µM | 10 to 20 µM | 
COc1cccc(-c2ccc(/C=C3\C(=O)N(c4ccc(C(=O)O)cc4)N=C3C)o2)c1 [Compound 501] | < 10 µM | < 10 µM | 
COc1cc(/C=C2\C(=O)N(c3ccc(C(=O)O)cc3)N=C2C2CC2)ccc1O [Compound 312] | < 10 µM | < 40 µM | 
CC1=NN(c2ccc(S(N)(=O)=O)cc2)C(=O)C1=Cc1ccc(N2CCN(C(=O)OC(C)(C)C)CC2)cc1 [Compound 179] |  | < 40 µM | 10 to 20 µM
O=C(O)c1ccc(N2N=C(c3ccoc3)/C(=C/c3ccc(-n4cncn4)cc3)C2=O)cc1 [Compound 252] | < 10 µM | < 40 µM | 
COc1cc(/C=C2\C(=O)N(c3ccc(C(=O)O)cc3)N=C2C)ccc1OCc1c(C)noc1C [Compound 391] | < 10 µM | 10 to 20 µM | 
COc1ccccc1C(=O)Nc1ccc(C=C2C(=O)N(c3ccc(S(N)(=O)=O)cc3)N=C2C)cc1 [Compound 228] |  | 10 to 20 µM | < 10 µM
COC(=O)c1ccc(COc2ccc(C=C3C(=O)N(c4ccc(C(=O)O)cc4)N=C3C)cc2OC)cc1 [Compound 347] |  | 10 to 20 µM | < 10 µM
CCCNC(=O)COc1ccc(C=C2C(=O)N(c3ccc(S(N)(=O)=O)cc3)N=C2C)cc1 [Compound 211] |  | < 40 µM | 10 to 20 µM
COC(=O)N1CCN(c2ccc(C=C3C(=O)N(c4ccccc4)N=C3C3CC3)cc2)CC1 [Compound 73] |  | < 40 µM | 10 to 20 µM
COc1ccc(C2=NN(c3ccc(C(=O)O)cc3)C(=O)C2=Cc2ccc3ccccc3c2)cc1OC [Compound 333] |  | 10 to 20 µM | 10 to 20 µM
CC1=NN(c2ccc(S(N)(=O)=O)cc2)C(=O)/C1=C\c1ccc2cc[nH]c2c1 [Compound 148] | < 10 µM | < 40 µM | 
O=C(O)c1ccc(N2N=C(c3ccccn3)/C(=C/c3ccc(-c4ccccc4F)o3)C2=O)cc1 [Compound 290] | < 10 µM | 10 to 20 µM | 
COC(=O)N1CCN(c2ccc(C=C3C(=O)N(c4ccccc4)N=C3c3ccc(OC)c(OC)c3)cc2)CC1 [Compound 33] |  | < 40 µM | 10 to 20 µM
COCC1=NN(Cc2cccc(O)c2)C(=O)/C1=C\c1ccc(-c2ccccc2F)o1 [Compound 190] | 10 to 20 µM | 10 to 20 µM | 
CC(C)=CC(=O)Nc1ccc(C=C2C(=O)N(c3ccc(S(N)(=O)=O)cc3)N=C2C)cc1 [Compound 232] |  | < 40 µM | 10 to 20 µM
CC1=NN(c2cccc(C(=O)N3CCN(c4ccc(O)cc4)CC3)c2)C(=O)/C1=C\c1ccc2[nH]ccc2c1 [Compound 375] | < 10 µM | < 40 µM | 
O=C(O)c1ccc(N2N=C(c3ccoc3)/C(=C/c3nccs3)C2=O)cc1 [Compound 249] | 10 to 20 µM | < 40 µM | 
CC1=NN(c2ccc(C(=O)O)cc2)C(=O)C1=Cc1ccc(N2CCN(c3ccccc3)CC2)cc1 [Compound 430] |  | < 10 µM | < 10 µM
COCC1=NN(c2ccc(C(=O)O)cc2)C(=O)/C1=C\c1ccc(N2CCCC2)cc1 [Compound 236] | < 10 µM | 10 to 20 µM | 

Reference: patent EP1900728A1 (Genecare Research Institute Co., Ltd, priority 2005, dated 2006)
